Read-outs that look alike come from different tables or passages of the source.
Key:
PMM/PGM [1] = molecular target: T1, PMM/PGM (Pseudomonas aeruginosa, UniProt P26276, S108C); assay: biochemical
T1 construct: gene algC

PMM/PGM [2] = molecular target: T1, PMM/PGM; conditions: read-out: Apparent dissociation constant; 50 mM MOPS pH 7.4, 1 mM MgCl2, 310 K; unphosphorylated enzyme

T1 sequence (P26276 whole entry S108C): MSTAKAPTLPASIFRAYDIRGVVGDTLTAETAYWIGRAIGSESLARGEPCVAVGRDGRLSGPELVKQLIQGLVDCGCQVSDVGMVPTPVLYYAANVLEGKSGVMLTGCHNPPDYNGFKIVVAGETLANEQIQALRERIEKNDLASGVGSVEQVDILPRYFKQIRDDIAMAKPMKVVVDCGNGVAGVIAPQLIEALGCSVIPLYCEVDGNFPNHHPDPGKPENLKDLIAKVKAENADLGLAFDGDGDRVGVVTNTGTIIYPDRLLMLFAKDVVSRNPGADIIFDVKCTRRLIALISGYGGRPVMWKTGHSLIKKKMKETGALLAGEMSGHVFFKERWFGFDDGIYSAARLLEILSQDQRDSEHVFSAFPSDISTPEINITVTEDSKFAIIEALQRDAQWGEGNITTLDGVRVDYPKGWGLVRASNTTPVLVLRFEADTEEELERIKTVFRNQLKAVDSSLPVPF

Row | Compound | Kd (PMM/PGM [1]) [µM] | Kd (PMM/PGM [2]) [µM]
1 | O=P(O)(O)O[C@H]1O[C@H](CO)[C@@H](O)[C@H](O)[C@H]1O [G1P, glucose 1-phosphate] | 198 ± 48 | 
2 | O=P(O)(O)OC[C@H]1OC(O)[C@H](O)[C@@H](O)[C@@H]1O (stereo partly shown) [G6P, glucose 6-phosphate] |  | 20 ± 7
3 | O=P(O)(O)OC[C@H]1O[C@H](OP(=O)(O)O)[C@H](O)[C@@H](O)[C@@H]1O [G16P, glucose 1,6-bisphosphate] | 839 ± 221 | 
4 | O=P(O)(O)O[C@H]1OC[C@@H](O)[C@H](O)[C@H]1O [X1P, xylose 1-phosphate] | 11 ± 9 | 

From paper PMC5509744 (Scientific Reports, 2017)
